target: T1, human GPR84 receptor (Homo sapiens, UniProt Q9NQS5); assay: cAMP HTRF assay for identification of cellular GPR84 antagonists; assay type: cell-based; conditions: CHO-K1 cells stably expressing human GPR84; Forskolin + agonist 6-OAU (EC80); average or median values
T1 construct: frozen aliquots prepared by acCELLerate; host or cells: CHO-K1
Method in brief: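 Forskolin-stimulated CHO-K1 cells stably expressing human GPR84, agonist-suppressed cAMP measured by HTRF (665/620 ratio) after lysis. Compounds at 11 concentrations, 20 μM to 0.07 nM, duplicate; normalized to DMSO and no-agonist controls; IC50 by 4-parameter fit.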

T1 sequence (Q9NQS5 whole entry): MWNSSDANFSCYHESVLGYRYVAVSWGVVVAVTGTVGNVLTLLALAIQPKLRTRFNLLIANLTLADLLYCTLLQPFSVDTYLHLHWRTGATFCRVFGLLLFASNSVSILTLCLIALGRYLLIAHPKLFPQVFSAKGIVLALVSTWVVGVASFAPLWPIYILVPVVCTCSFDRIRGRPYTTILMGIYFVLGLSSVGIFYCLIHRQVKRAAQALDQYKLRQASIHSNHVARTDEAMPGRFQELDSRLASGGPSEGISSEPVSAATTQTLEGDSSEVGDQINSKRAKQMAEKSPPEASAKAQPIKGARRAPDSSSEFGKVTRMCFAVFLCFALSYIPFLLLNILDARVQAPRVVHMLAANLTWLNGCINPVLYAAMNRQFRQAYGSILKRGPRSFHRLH

IC50 | SMILES
0.009 µM | Cc1ccc(Cn2cc3c(n2)-c2c(oc(C(=O)NC[C@@H]4CCCO4)c2C(F)(F)F)CC3C)nc1 (mixture of isomers) [Example 251, (4±)-4-methyl-2-[(5-methyl-2-pyridyl)methyl]-N-[[(2S)-tetrahydrofuran-2-yl]methyl]-8-(trifluoromethyl)-4,5-dihydrofuro[2,3-g]indazole-7-carboxamide]
0.13 µM | Cc1c(C(=O)NC[C@@H]2COCCO2)oc2c1-c1nn(Cc3ccc(C(=O)NC[C@@H]4COCCO4)nc3)cc1CC2 [Example 147, N-[(2R)-1,4-dioxan-2-ylmethyl]-2-[(6-{[(2R)-1,4-dioxan-2-ylmethyl]carbamoyl}pyridin-3-yl)methyl]-8-methyl-4,5-dihydro-2H-furo[2,3-g]indazole-7-carboxamide]
0.007 µM | O=C(NC[C@@H]1COCCO1)c1oc2c(c1C(F)(F)F)-c1nn(Cc3ccccn3)cc1C1(CC1)C2 [Example 219, N-[(2R)-1,4-Dioxan-2-ylmethyl]-2′-(pyridin-2-ylmethyl)-8′-(trifluormethyl)-2′,5′-dihydrospiro[cyclopropan-1,4′-furo[2,3-g]indazol]-7′-carboxamide]
0.047 µM | Cc1c(C(=O)NC[C@@H]2CCCO2)oc2c1-c1nn(Cc3ccc(C(=O)NC[C@@H]4CCCO4)nc3)cc1CC2 [Example 146, 8-methyl-N-[(2S)-tetrahydrofuran-2-ylmethyl]-2-[(6-{[(2S)-tetrahydrofuran-2-ylmethyl]carbamoyl}pyridin-3-yl)methyl]-4,5-dihydro-2H-furo[2,3-g]indazole-7-carboxamide]
0.014 µM | C[C@@H]1Cc2oc(C(=O)NCc3ncco3)c(C(F)(F)F)c2-c2nn(C[C@H]3COCCO3)cc21 (single isomer, unassigned) [Example 256, (4R or 4S)-2-{[(2S)-1,4-dioxan-2-yl]methyl}-4-methyl-N-[(1,3-oxazol-2-yl)methyl]-8-(trifluoromethyl)-4,5-dihydro-2H-furo[2,3-g]indazole-7-carboxamide]
0.023 µM | CC1(C)CCC(CNC(=O)c2oc3c(c2C(F)(F)F)-c2nn(C[C@H]4COCCO4)cc2CC3)O1 (mixture of isomers) [Example 223, N-{[(2±)-5,5-dimethyloxolan-2-yl]methyl}-2-{[(2S)-1,4-dioxan-2-yl]methyl}-8-(trifluoromethyl)-4,5-dihydro-2H-furo[2,3-g]indazole-7-carboxamide]
0.01 µM | Cc1ccc(Cn2cc3c(n2)-c2c(oc(C(=O)NC[C@@H]4COCCO4)c2C(F)(F)F)CC32CCC2)nc1 [Example 278, N-[(2R)-1,4-Dioxan-2-ylmethyl]-2′-[(5-methylpyridin-2-yl)methyl]-8′-(trifluormethyl)-2′,5′-dihydrospiro[cyclobutan-1,4′-furo[2,3-g]indazol]-7′-carboxamide]
0.097 µM | Cc1c(C(=O)NCC2CC(F)(F)CO2)oc2c1-c1nn(Cc3ccccn3)cc1CC2 (racemic) [Example 174]
1.21 µM | Cc1c(C(=O)NC[C@@H]2COCCO2)oc2c1-c1nn(C[C@H]3COCCO3)cc1[C@H](C(F)(F)F)C2 (single isomer, unassigned) [Example 265-2, (4R or 4S)-N-{(2R)-1 ,4-dioxan-2-yl]methyl}-2-{[(2S)-1,4-dioxan-2-yl]methyl}-8-methyl-4-(trifluoromethyl)-4,5-dihydro-2H-furo[2,3-g]indazole-7-carboxamide]
0.092 µM | Cc1c(C(=O)NC[C@@H]2CCCO2)oc2c1-c1nn(Cc3cccc(C(F)(F)F)n3)cc1CC2 [Example 56, 8-methyl-N-[(2S)-tetrahydrofuran-2-ylmethyl]-2-{[6-(trifluoromethyl)pyridin-2-yl]methyl}-4,5-dihydro-2H-furo[2,3-g]indazole-7-carboxamide]
0.98 µM | CC(=O)N1CC(Cn2cc3c(n2)-c2c(oc(C(=O)NC[C@@H]4CCCO4)c2C)CC3)C1 [Example 164, 2-[(1-acetylazetidin-3-yl)methyl]-8-methyl-N-[(2S)-tetrahydrofuran-2-ylmethyl]-4,5-dihydro-2H-furo[2,3-g]indazole-7-carboxamide]
3.52 µM | Cc1c(C(=O)NCC2CN(C)CCO2)oc2c1-c1nn(Cc3ccccn3)cc1CC2 (single isomer, unassigned) [Example 38-2]
0.06 µM | COC(=O)N1CC(F)(Cn2cc3c(n2)-c2c(oc(C(=O)NC[C@@H]4CCCO4)c2C)CC3)C1 [Example 167, methyl 3-fluoro-3-[(8-methyl-7-{[(2S)-tetrahydrofuran-2-ylmethyl]carbamoyl}-4,5-dihydro-2H-furo[2,3-g]indazol-2-yl)methyl]azetidine-1-carboxylate]
2.54 µM | Cc1c(C(=O)NC[C@@H]2CCCO2)oc2c1-c1nn(CCN)cc1CC2 [Example 160, 2-(2-aminoethyl)-8-methyl-N-[(2S)-tetrahydrofuran-2-ylmethyl]-4,5-dihydro-2H-furo[2,3-g]indazole-7-carboxamide]
0.01 µM | O=C(NC[C@@H]1COCCO1)c1oc2c(c1C(F)(F)F)-c1nn(CC3CCN(C(=O)c4ccccc4)CC3)cc1CC2 [Example 287, 2-[(1-benzoylpiperidin-4-yl)methyl]-N-{[(2R)-1,4-dioxan-2-yl]methyl}-8-(trifluoromethyl)-4,5-dihydro-2H-furo[2,3-g]indazole-7-carboxamide]
0.15 µM | Cc1c(C(=O)NCc2ncco2)oc2c1-c1nn(Cc3ccccn3)cc1CC2 [Example 32, 8-methyl-N-(1,3-oxazol-2-ylmethyl)-2-(pyridin-2-ylmethyl)-4,5-dihydro-2H-furo[2,3-g]indazole-7-carboxamide]
0.29 µM | COCCNC(=O)c1oc2c(c1C)-c1nn(Cc3ccccn3)cc1CC2 [Example 29, N-(2-methoxyethyl)-8-methyl-2-(pyridin-2-ylmethyl)-4,5-dihydro-2H-furo[2,3-g]indazole-7-carboxamide]
0.17 µM | Cc1cccc(Cn2cc3c(n2)-c2c(oc(C(=O)NCc4cc(C5CC5)on4)c2C)CC3)n1 [Example 68, N-[(5-cyclopropyl-1,2-oxazol-3-yl)methyl]-8-methyl-2-[(6-methylpyridin-2-yl)methyl]-4,5-dihydro-2H-furo[2,3-g]indazole-7-carboxamide]
0.102 µM | Cc1c(C(=O)NCC2COCC(C)(C)O2)oc2c1-c1nn(Cc3ccccn3)cc1CC2 (racemic) [Example 181]
0.14 µM | Cc1ncccc1Cn1cc2c(n1)-c1c(oc(C(=O)NC[C@@H]3CCCO3)c1C)CC2 [Example 73, 8-methyl-2-[(2-methylpyridin-3-yl)methyl]-N-[(2S)-tetrahydrofuran-2-ylmethyl]-4,5-dihydro-2H-furo[2,3-g]indazole-7-carboxamide]
0.003 µM | C[C@@H]1Cc2oc(C(=O)NCc3cnc(Cl)cn3)c(C(F)(F)F)c2-c2nn(C[C@H]3COCCO3)cc21 (single isomer, unassigned) [Example 323, (4R or 4S)—N-[(5-chloropyrazin-2-yl)methyl]-2-{[(2S)-1,4-dioxan-2-yl]methyl}-4-methyl-8-(trifluoromethyl)-4,5-dihydro-2H-furo[2,3-g]indazole-7-carboxamide]
0.063 µM | Cc1cccc(Cn2cc3c(n2)-c2c(oc(C(=O)NCC4CCCO4)c2C)CC3)n1 (single isomer, unassigned) [Example 66-1]
0.112 µM | Cc1c(C(=O)NC[C@H]2CCC3(COC3)O2)oc2c1-c1nn(C[C@H]3COCCO3)cc1C1(CC1)C2 (single isomer, unassigned) [Example 201-2]
